Measured values: patent publication US20230000816A1, “SODIUM-GLUCOSE LINKED TRANSPORTER INHIBITORS FOR THE MANAGEMENT OF CHRONIC KIDNEY DISEASE, HYPERTENSION, AND HEART FAILURE IN COMPANION ANIMALS” (INCREVET, INC., priority 2019, published 2023)

Legend:
Sprague-Dawley rats = test: PPAR-γ agonist (pioglitazone)-mediated fluid retention / plasma expansion model, 7 days, drugs in drinking water; assay type: in vivo, rat
Source text: It has been recognized in human clinical practice that an undesirable side effect of PPAR-γ agonists of the thiazolidinedione class is fluid retention and edema, which limits their use in patients with congestive heart failure. The mechanism of action of the thiazolidinediones is believed to be through stimulation of expression of the epithelial sodium channel (ENaC) in the kidney, resulting in an increased uptake of sodium ions from the distal tubule. Sodium retention and the associated expansion of extracellular fluid volume are characteristic features of congestive heart failure in multiple species. […] The sodium channel blocker amiloride was delivered in drinking water to a third group of rats as a comparator. Plasma expansion was measured by hematocrit. […] Food weight was recorded to measure consumption over the course of the experiment. […] Full bottles were pre-weighed and the weights recorded to allow consumption to be measured over the course of the experiment. On days 1 and 7, rats were warmed using a heating pad and lightly anesthetized using isoflurane. Using a sterile scalpel blade, a small tail nick was made on the distal one third of the tail. Blood was collected in a heparinized microcapillary tube sealed with putty at one end and stored on ice until centrifugation (5000 rpm, 5 min). Plasma volume was determined using a microhematocrit capillary tube reader card. On day 7, rats, food and water bottles were again weighed and recorded and hematocrits were determined using blood collected by a tail nick.

[1] = test system: dogs with stage C heart failure; settings: cited from earlier work; for median survival: dogs with stage C heart failure, composite primary endpoint
cats with CKD = settings: cited from earlier work; for reduction in urinary protein to creatinine ratio: cats, 7, 30, 60, 90, 120 and 180 days
[2] = test system: client-owned cats with heart disease; settings: 151 client-owned cats with heart disease; cited from earlier work
[3] = test system: client-owned dogs with CKD; settings: cited from earlier work
[4] = test system: diabetic subjects with stage A3 albuminuria; settings: humans, median 2.62 years; cited from earlier work
[5] = test system: human SGLT2 compared to human SGLT1; settings: compared with other SGLT inhibitors; cited from earlier work
[6] = test system: dogs with stage B heart failure; settings: cited from earlier work
[7] = rats, day 1 to day 7, mean ± SEM
[8] = rats, pioglitazone diet, mean ± SEM
[9] = rats, relative to day 1, mean ± SEM

N=C(N)NC(=O)c1nc(Cl)c(N)nc1N [Amiloride, reference compound]
Plasma volume, Day 7 (Sprague-Dawley rats; rats after 7 days pioglitazone diet, group mean ± SEM): 56.6 ± 0.4 % of blood volume
Plasma volume, Day 1 (Sprague-Dawley rats; rats on 0.03% pioglitazone diet, by hematocrit, group mean ± SEM): 52.7 ± 0.9 % of blood volume
Effect on pioglitazone-mediated plasma expansion (conclusion) (Sprague-Dawley rats; rats, 7 days): markedly less effective than bexagliflozin
Body Weight (%), Δ (percent mass gain) (Sprague-Dawley rats; [7]): 10.8 ± 0.7%
Body Weight (g), Δ (Sprague-Dawley rats; [7]): 40.0 ± 2.8 g
Plasma volume, Δ (day 1 to day 7) (Sprague-Dawley rats; rats, pioglitazone diet, group mean ± SEM): 3.9 ± 0.7 % of blood volume
Body Weight (g), Day 1 (Sprague-Dawley rats; [8]): 370.0 ± 6.0 g
Body Weight (g), Day 7 (Sprague-Dawley rats; [8]): 410.0 ± 7.7 g
Body Weight (%), Day 1 (Sprague-Dawley rats; [9]): 100 ± 0%
Body Weight (%), Day 7 (Sprague-Dawley rats; [9]): 110.8 ± 0.7 %

CCOC(=O)[C@H](CCc1ccccc1)N[C@H]1CCc2ccccc2N(CC(=O)O)C1=O [benazepril]
median survival [1]: 140 days
reduction in urinary protein to creatinine ratio (cats with CKD): not significant
primary endpoint of treatment failure [2]: no benefit
difference in renal survival time vs placebo ([3]; 49 client-owned dogs): significance was not realized
proteinuria (urinary protein to creatinine ratio) ([3]; dogs, p=0.0032): significantly improved

Cc1ccc([C@@H]2O[C@H](CO)[C@@H](O)[C@H](O)[C@H]2O)cc1Cc1ccc(-c2ccc(F)cc2)s1 [canagliflozin]
risk of composite of end-stage kidney disease, doubling of serum creatinine, or renal or cardiovascular death, lower than placebo [4]: 30%

CCc1ccc([C@@H]2O[C@H](CO)[C@@H](O)[C@H](O)[C@H]2O)cc1Cc1ccc2c(c1)OCCO2 [licogliflozin]
selectivity for human SGLT2 compared to human SGLT1 (in words) [5]: lower selectivity

Cc1cc(OCCCNCC(C)(C)C(N)=O)ccc1Cc1c(O[C@@H]2O[C@H](CO)[C@@H](O)[C@H](O)[C@H]2O)n[nH]c1C(C)C [mizagliflozin]
selectivity for human SGLT2 compared to human SGLT1 (in words) [5]: more active against SGLT1 than SGLT2

COc1ccc(-c2nc3ccc(C4=NNC(=O)CC4C)cc3[nH]2)cc1 (stereo not shown) [pimobendan]
median time to the primary endpoint ([6]; dogs with stage B heart failure, onset of CHF, cardiac-related death, or euthanasia, 95% CI: 856-NA): 1228 days
hazard ratio ([6]; pimobendan vs placebo, 95% CI: 0.47-0.87): 0.64
median survival [1]: 267 days
hazard ratio ([1]; pimobendan vs benazepril, 95% CI 0.516 to 0.916, p=0.0099): 0.688

CCOc1ccc(Cc2cc([C@@H]3O[C@H](SC)[C@@H](O)[C@H](O)[C@H]3O)ccc2Cl)cc1 [sotagliflozin]
selectivity for human SGLT2 compared to human SGLT1 (in words) [5]: lower selectivity

CCCc1nc2c(C)cc(-c3nc4ccccc4n3C)cc2n1Cc1ccc(-c2ccccc2C(=O)O)cc1 [telmisartan]
comparison with benazepril (cats with CKD; cats with CKD): noninferior to benazepril
reduction in urinary protein to creatinine ratio (cats with CKD): significant at all time points
